Measured values reported in patent publication US5187165A, “Memory enhancing and analgesic 1,2,3a,8,8a-hexahydro-3a,8(and 1,3a,8)-di(and tri)methylpyrrolo[2,3-b]indoles” (priority 1988, dated 1993).
Counter-ions that a name gives are not always drawn. Like-named read-outs stand apart in the source and are kept apart here.

How the values were obtained:
[1] = biological target: T1, acetylcholinesterase (Brain AChE) (Rattus norvegicus, UniProt P37136); assay: In Vitro Inhibition of Acetylcholinesterase Activity in Rat Striatum; assay type: biochemical
T1 construct: corpora striata dissected free, weighed and homogenized in 19 volumes; from tissue; host or cells: corpora striata of male Wistar rats, crude homogenate in phosphate buffer
T1 sequence (P37136 32-614): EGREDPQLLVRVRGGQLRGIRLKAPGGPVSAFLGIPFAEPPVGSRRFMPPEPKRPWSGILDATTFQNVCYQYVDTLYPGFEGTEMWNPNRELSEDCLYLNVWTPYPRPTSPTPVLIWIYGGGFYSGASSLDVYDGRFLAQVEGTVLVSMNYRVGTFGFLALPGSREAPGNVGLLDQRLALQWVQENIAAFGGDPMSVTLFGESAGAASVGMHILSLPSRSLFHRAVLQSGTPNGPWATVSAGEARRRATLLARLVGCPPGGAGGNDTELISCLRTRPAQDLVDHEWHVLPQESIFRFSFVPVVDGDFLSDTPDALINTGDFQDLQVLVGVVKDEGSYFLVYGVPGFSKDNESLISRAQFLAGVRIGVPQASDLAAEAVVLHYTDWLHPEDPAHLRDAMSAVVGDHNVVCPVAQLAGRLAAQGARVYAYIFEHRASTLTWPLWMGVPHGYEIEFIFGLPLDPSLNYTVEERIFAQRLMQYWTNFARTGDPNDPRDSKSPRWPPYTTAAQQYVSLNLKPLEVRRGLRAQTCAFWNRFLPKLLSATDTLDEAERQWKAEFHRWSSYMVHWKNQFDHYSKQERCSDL
Text: (§1) Cholinesterases are found throughout the body, both in the brain and in serum. However, only brain acetylcholinesterase (AChE) distribution is correlated with central cholinergic innervation. […] We have determined in vitro inhibition of acetylcholinesterase activity in rat striatum and in vitro inhibition of butrylcholinesterase activity in human serum according to the methods described below.
The method described below was used in this invention for assaying cholinesterase activity. This is a modification of the method of Ellman et al., Biochem. Pharmacol. 7, 98 (1961).
1. 0.05M Phosphate buffer, pH 7.2
(§2) (a) 9.9 mg 5,5-dithiobisnitrobenzoic acid (DTNB) (0.25 mM)
(b) 99 mg s-acetylthiocholine chloride (5 mM)
(§3) (c) q.s. to 100 ml with 0.05M phosphate buffer, pH 7.2 (reagent 1)
Male Wistar rats are decapitated, brains rapidly removed, corpora striata dissected free, weighed and homogenized in 19 volumes (approximately 7 mg protein/ml) of 0.05M phosphate buffer, pH 7.2 using a Potter-Elvehjem homogenizer. A 50 microliter aliquot of the homogenate is added to 50 microliter vehicle of various concentrations of the test drug and preincubated for 10 minutes at room temperature.
1. For routine IC50 determinations the Abbott Bichromatic Analyzer, ABA-100, is used to determine acetylcholinesterase activity.
Incubation temperature: 30° C.
Following the 10 minute preincubation of the tissue (enzyme) with the inhibitor, the samples are mixed with the substrate chromogen buffer by the ABA-100. Using the indicated instrument settings the ABA-100 automatically reads the color reaction and prints out the results in enzyme units after 15 minutes.
2. The enzyme activity can also be measured with Gilford 250 spectrophotometer. This method is used for more accurate kinetic measurments.
Reagents are added to the reference and sample side of a split curvette as follows.
The uninhibited activity of the enzyme (tissue homogenate) is first determined. Test drugs are made up in a suitable solvent and added in suitable dilutions to the buffer vehicle. The reaction rate is determined by the slope of the recorded absorbance change. The actual rate (moles/liter/min) can be calculated as described in the following formula
rate(moles/liter/min)=slope/(1.36×10^4).

[2] = biological target: T2, butyrylcholinesterase (Serum AChE) (Homo sapiens, UniProt P06276); assay: In Vitro Inhibition of Butyrylcholinesterase Activity in Human Serum; assay type: biochemical
T2 construct: A vial of lyophilized human serum; purchased Biodynamics, Houston, Tex; (Precilip); host or cells: lyophilized human serum, reconstituted in water; enzyme not purified
T2 sequence (P06276 29-602): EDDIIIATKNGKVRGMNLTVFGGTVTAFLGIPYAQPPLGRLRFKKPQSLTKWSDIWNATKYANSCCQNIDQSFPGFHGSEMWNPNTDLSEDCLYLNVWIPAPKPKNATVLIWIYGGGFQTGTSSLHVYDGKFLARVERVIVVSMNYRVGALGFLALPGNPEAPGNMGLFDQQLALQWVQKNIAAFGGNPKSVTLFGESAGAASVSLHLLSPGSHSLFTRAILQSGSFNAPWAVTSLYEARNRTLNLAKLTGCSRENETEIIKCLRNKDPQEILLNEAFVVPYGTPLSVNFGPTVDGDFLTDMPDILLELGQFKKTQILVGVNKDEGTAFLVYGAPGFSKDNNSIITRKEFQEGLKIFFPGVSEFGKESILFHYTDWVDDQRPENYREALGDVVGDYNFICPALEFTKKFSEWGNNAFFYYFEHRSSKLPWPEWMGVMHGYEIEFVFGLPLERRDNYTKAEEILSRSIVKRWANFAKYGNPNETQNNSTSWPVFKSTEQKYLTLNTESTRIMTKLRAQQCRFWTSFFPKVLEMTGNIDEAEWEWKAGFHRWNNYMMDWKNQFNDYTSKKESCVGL
Text: as §1
This assay can be used in conjunction with the acetylcholinesterase assay to determine the enzyme selectivity of various chloinesterase inhibitors.
Butyrylcholinesterase (BChE), which is sometimes called pseudocholinesterase, preferentially hydrolyzes butyrylcholine. This enzyme is found in the highest amounts in serum, but its physiological role is not known.
as §2
(b) 113 mg s-butyrylthiochloine chloride (5 mM)
as §3
A vial of lyophilized human serum (Precilip, Biodynamics, Houston, Tex. is reconstituted in 3 ml of distilled water. A 10 microliter aliquot of this suspension is added to 90 microliter of the vehicle or various concentrations of the test drug and preincubated for 10 minutes at room temperature.
Substantially the same procedure is used as described above in Section C of the Procedure used for determining the inhibition of acetylcholinsterase activity.

[3] = tested on: scopolamine-induced memory deficit; assay: Dark Avoidance Assay (scopolamine induced memory deficit reversal); assay type: in vivo, mice; settings: Mus musculus, sc, 24 h, read-out: % of Animals with Scopolamine Induced Memory Deficit Reversal
Method: In this assay mice are tested for their ability to remember an unpleasant stimulus for a period of 24 hours. A mouse is placed in a chamber that contains a dark compartment; a strong incandescent light drives it to the dark compartment, where an electric shock is administered through metal plates on the floor. The animal is removed from the testing apparatus and tested again, 24 hours later, for the ability to remember the electric shock.
If scopolamine, an anticholinergic that is known to cause memory impairment, is administered before an animal's initial exposure to the test chamber, the animal re-enters the dark compartment shortly after being placed in the test chamber 24 hours later. This effect of scopolamine is blocked by an active test compound, resulting in a greater interval before re-entry into the dark compartment.
The results for an active compound are expressed as the percent of a group of animals in which the effect of scopolamine is blocked, as manifested by an increased interval between being placed in the test chamber and re-entering the dark compartment.

[4] = tested on: 2-phenyl-1,4-benzoquinone-induced writhing; assay: 2-phenyl-1,4-benzoquinone-induced writhing (PQW) test; assay type: in vivo; settings: mice; for ED50: Mus musculus, read-out: ANALGESIC ACTIVITY (ED50), PQW
Text: Compounds I of the present invention are also useful as analgesic agents due to their ability to alleviate pain in mammals. […] Exptl. Biol. Med., 95,729 (1957)] and in modified Haffner's analgesia.

[5] = tested on: pressure stress by artery clip on tail; assay: Modified Haffner's Analgesia; assay type: in vivo, mice; settings: sc; for ED50: Mus musculus, read-out: ANALGESIC ACTIVITY (ED50), Modified Haffner's Analgesia, mice, sc, peak time of drug activity; for ANALGESIC ACTIVITY (ED50), Modified Haffner's Analgesia: mice, peak time of drug activity
Text: The latter assay is used to evaluate analgesic activity by measuring drug-induced changes in the sensitivity of mice to pressure stress by placing an artery clip (21/2 inches long) on their tail. The procedure used is a modification of the test developed by Haffner, Dtsch. Med. Wschr., 55, 731 (1929), and it is described below.
Male mice (Charles River, CD-1) from 18-30 grams are used for the test. An artery clip is applied to the root of the tail of a mouse (approximately 1/2 inch from the body) to induce pain. The animal quickly responds to this noxious stimuli by biting the clip or the location of the clip. This reaction time, the interval between stimulus onset and response, is recorded in 1/10-second increments by a stop watch.
For a time response, the screening dose (25 mg/kg) is administered subcutaneously (10 ml/kg) to the animal receiving food and water ad libitum before testing. Animals receiving the compound orally are fasted 18-24 hours before drug administration. Drug to be tested is prepared with distilled water and if insoluble, one drop of a surfactant is added.
Twenty-eight animals (seven/group) are administered the drug 15, 30, 45 and 60 minutes prior to testing.
The cut-off time (CO) is determined by taking the (x) average +(3) standard (SD) deviations of the combined response latencies of the control mice in all time periods.
Any reaction time, in subsequent drug tests, which is greater than the CO (for the same time period) therefore exceeds 99% of a normal Gaussian distribution and is called "positive response" indicative of analgesic activity. A time response indicates the period of greatest analgesic effect after dosing. The ED50 is determined at the peak time of drug activity. A minimum of three dose groups are used. ED50 's are calculated using computer analysis.

norepinephrine uptake = assay type: biochemical; settings: rat brain synaptosomes, 50 nM 3H-NE, 37° C., 5 min; read-out: Reuptake Inhibition of neurotransmitters, Norepinephrine

CN1CC[C@@]2(C)c3cc(OC(=O)N4CC5CCC(CC5)C4)ccc3N(C)[C@@H]12 [(3aS-cis)-1,2,3,3a,8,8a-Hexahydro-1,3a,8-trimethylpyrrolo[2,3-b]indol-5-ol,[3-[3-azabicyclo[3.2.2]nonyl]]carbamate ester fumarate]
IC50 [1]: 0.84 µM
IC50 [2]: > 1000 µM
responders at 5 mg/kg [3]: 33%

CCN1CCC2(C)c3cc(O)cc(Br)c3N(C)C12 (centres unmarked) [7-Bromo-1-ethyl-1,2,3,3a,8,8a-hexahydro-3a,8-dimethylpyrrolo[2,3-b]indol-5-ol salicylate]
ED50 ([4]; sc, sc): 2.52 mg/kg
ED50 [5]: 1.94 mg/kg

CN1CC[C@@]2(C)c3cc(O)cc(Br)c3N(C)[C@@H]12 (relative stereo) [(3aS-cis)-7-bromo-1,2,3,3a,8,8a-hexahydro-1,3a,8-trimethylpy] [(3aS-cis)-7-Bromo-1,2,3,3a, 8,8a-hexahydro-1,3a,8-trimethylpyrrolo[2,3-b]indol-5-ol]
ANALGESIC ACTIVITY (ED50), PQW ([4]; sc): 0.041 mg/kg
ANALGESIC ACTIVITY (ED50), Modified Haffner's Analgesia [5]: 0.55 mg/kg

CN1CC[C@@]2(C)c3cc(O)ccc3N(C)[C@@H]12 [eseroline salicylate, reference compound]
ED50 ([4]; sc, sc): 0.52 mg/kg
ED50 [5]: 0.18 mg/kg

CCC1CCC(NC(=O)Oc2ccc3c(c2)[C@]2(C)CCN(C)[C@@H]2N3C)CC1 (stereo partly drawn) [(3aS-cis)-1,2,3,3a,8,8a-Hexahydro-1,3a,8-trimethylpyrrolo[2,3-b]indol-5-ol,4-ethylcyclohexyl carbamate ester]
IC50 (norepinephrine uptake): 2.6 µM

CCN(CC)C(=O)Oc1cc2c(cc1Br)N(C)[C@H]1N(C)CC[C@@]21C [(3aS-cis)-6-bromo-1,2,3,3a,8,8a-hexahydro-1,3a,8-trimethylpyrrolo[2,3-b]indol-5-ol, N,N-diethyl carbamate ester]
responders at 5 mg/kg [3]: 40%

CN1CC[C@@]2(C)c3cc(O)cc(Br)c3N(C)[C@@H]12 (relative stereo) [7-bromo-1,2,3,3a,8,8a-hexahydro-1,3a,8-trimethylpyrrolo[2,3-] [7-Bromo-1,2,3,3a,8,8a-hexahydro-1,3a,8-trimethylpyrrolo[2,3-b]indol-5-ol]
ANALGESIC ACTIVITY (ED50), PQW ([4]; po): 0.33 mg/kg
ANALGESIC ACTIVITY (ED50), PQW ([4]; sc): 0.17 mg/kg
ANALGESIC ACTIVITY (ED50), Modified Haffner's Analgesia [5]: 0.22 mg/kg

CN1CC[C@@]2(C)c3cc(OC(=O)C(C)(C)C)cc(Br)c3N(C)[C@@H]12.Cl (relative stereo) [(3aS-cis)-7-Bromo-1,2,3,3a,8,8a-hexahydro-1,3a,8-trimethylpyrrolo[2,3-b]indol-5-ol, trimethylacetate hydrochloride]
ED50 ([4]; sc, sc): 0.8 mg/kg
ED50 [5]: 0.6 mg/kg

CNC(=O)Oc1cc(C)c2c(c1)[C@]1(C)CCN(C)[C@@H]1N2C [(3aS-cis)-1,2,3,3a,8,8a-Hexahydro-1,3a,7,8-tetramethylpyrrolo[2,3-b]indol-5-ol, methyl carbamate ester]
IC50 [1]: 0.012 µM

CN1CC[C@@]2(C)c3cc(O)cc(Br)c3N(C)[C@@H]12 (relative stereo) [(3aS-cis)-7-Bromo-1,2,3,3a, 8,8a-hexahydro-1,3a,8-trimethylpyrrolo[2,3-b]indol-5-ol]
ED50 ([4]; po, po): 0.36 mg/kg

CC(=O)Oc1cc([N+](=O)[O-])c2c(c1)[C@]1(C)CCN(C)[C@@H]1N2C [(3aS-cis)-1,2,3,3a,8,8a-Hexahydro-1,3a,8-trimethyl-7-nitropyrrolo[2,3-b]indol-5-ol acetate fumarate]
ED50 ([4]; sc, sc): 1.5 mg/kg
ED50 [5]: 3.6 mg/kg

CN1CC[C@@]2(C)c3cc(OC(=O)NC45CC6CC(CC(C6)C4)C5)ccc3N(C)[C@@H]12 [(3aS-cis)-1,2,3,3a,8,8a-Hexahydro-1,3a,8-trimethylpyrrolo[2,3-b]indol-5-ol,(1-adamantyl)carbamate ester]
IC50 [1]: 3.05 µM
IC50 [2]: > 100 µM
responders at 1.25 mg/kg [3]: 27%

CN1CC[C@@]2(C)c3cc(OC(=O)NC4CCCCCCCCCCC4)ccc3N(C)[C@@H]12 [(3aS-cis)-1,2,3,3a,8,8a-Hexahydro-1,3a,8-trimethylpyrrolo[2,3-b]indol-5-ol,cyclododecyl carbamate ester]
IC50 [1]: 0.41 µM
IC50 [2]: > 1000 µM

C=CCN1CCC2(C)c3cc(O)ccc3N(C)C12 (centres unmarked) [1,2,3,3a,8,8a-Hexahydro-3a,8-dimethyl-1-(2-propenyl)-pyrrolo[2,3-b]indol-5-ol salicylate]
ED50 ([4]; sc, sc): 3.9 mg/kg
ED50 [5]: 2.56 mg/kg

Cc1cc(O)cc2c1N(C)[C@H]1N(C)CC[C@@]21C (relative stereo) [(3aS-cis)-1,2,3,3a,8,8a-Hexahydro-1,3a,7,8-tetramethylpyrrolo[2,3-b]indol-5-ol]
ED50 ([4]; sc, sc): 0.22 mg/kg
ED50 [5]: 0.31 mg/kg
